{"source": "PubChem BioAssay AID256", "about": "(DTP/NCI, 2004)", "tested_on": "CD2F1 mice, L1210 leukemia ip, survival T/C", "test": "NCI In Vivo Anticancer Drug Screen. Data for tumor model L1210 Leukemia (intraperitoneal) in CD2F1 (CDF1) mice", "details": "higher = longer survival", "method_in_brief": "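Compound-dosed mice with transplantable tumor versus matched vehicle controls; endpoint ratio T/C reported.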", "key": {"[1]": {"details": "endpoint: mean survival time, dose: 100.0 mg/kg/injection, schedule: Q04DX003 (ip), vehicle: saline with Tween-80"}, "[2]": {"details": "endpoint: mean survival time, dose: 200.0 mg/kg/injection, schedule: Q04DX003 (ip), vehicle: saline with Tween-80"}, "[3]": {"details": "endpoint: mean survival time, dose: 400.0 mg/kg/injection, schedule: Q04DX003 (ip), vehicle: saline with Tween-80"}, "[4]": {"details": "endpoint: mean survival time, dose: 100.0 mg/kg/injection, schedule: Q01DX001 (ip), vehicle: saline"}}, "note": "Several values for one entry are separate records, joined by “and”; a condition that tells them apart may be missing. Equal values may be shown once. Inconclusive results and toxic doses are left out."}
{"smiles": "CNc1cccnc1/C=N/NC(N)=S", "values": [{"measurement": "T/C", "setting": "endpoint: mean survival time, dose: 12.5 mg/kg/injection, schedule: Q01DX009 (ip), vehicle: saline with Tween-80", "result": "104 % of control"}, {"measurement": "T/C", "setting": "endpoint: mean survival time, dose: 50.0 mg/kg/injection, schedule: Q01DX009 (ip), vehicle: saline with Tween-80", "result": "154 % of control"}, {"measurement": "T/C", "setting": "endpoint: mean survival time, dose: 100.0 mg/kg/injection, schedule: Q01DX009 (ip), vehicle: saline with Tween-80", "result": "162 % of control"}, {"measurement": "T/C", "setting": "endpoint: mean survival time, dose: 200.0 mg/kg/injection, schedule: Q01DX009 (ip), vehicle: saline with Tween-80", "result": "181 % of control"}, {"measurement": "T/C", "setting": "endpoint: mean survival time, dose: 400.0 mg/kg/injection, schedule: Q01DX009 (ip), vehicle: saline with Tween-80", "result": "90 % of control"}]}
{"smiles": "COC(C(=O)C(O)C(C)O)C1CC2C=C3C=C(OC4CC(OC5CC(O)C(OC)C(C)O5)C(OC(C)=O)C(C)O4)C(C)C(=O)C3=C(O)C2=C(O)C1OC1CC(OC2CC(OC3CC(C)(O)C(O)C(C)O3)C(O)C(C)O2)C(O)C(C)O1", "note": "(configuration not stated)", "values": [{"measurement": "T/C", "setting": "endpoint: mean survival time, dose: 0.25 mg/kg/injection, schedule: Q01DX009 (ip), vehicle: saline with Tween-80", "result": "92 % of control and 101 % of control and 104 % of control"}, {"measurement": "T/C", "setting": "endpoint: mean survival time, dose: 0.5 mg/kg/injection, schedule: Q01DX009 (ip), vehicle: saline with Tween-80", "result": "100 % of control and 101 % of control (2×)"}, {"measurement": "T/C", "setting": "endpoint: mean survival time, dose: 0.5 mg/kg/injection, schedule: Q01DX009 (ip), vehicle: saline", "result": "124 % of control"}, {"measurement": "T/C", "setting": "endpoint: mean survival time, dose: 1.0 mg/kg/injection, schedule: Q01DX009 (ip), vehicle: saline with Tween-80", "result": "101 % of control and 102 % of control"}, {"measurement": "T/C", "setting": "endpoint: mean survival time, dose: 1.0 mg/kg/injection, schedule: Q01DX009 (ip), vehicle: saline", "result": "98 % of control"}, {"measurement": "T/C", "setting": "endpoint: mean survival time, dose: 2.0 mg/kg/injection, schedule: Q01DX009 (ip), vehicle: saline with Tween-80", "result": "121 % of control and 108 % of control"}, {"measurement": "T/C", "setting": "endpoint: mean survival time, dose: 4.0 mg/kg/injection, schedule: Q01DX009 (ip), vehicle: saline", "result": "115 % of control"}, {"measurement": "T/C", "setting": "endpoint: mean survival time, dose: 8.0 mg/kg/injection, schedule: Q01DX009 (ip), vehicle: saline with Tween-80", "result": "189 % of control"}, {"measurement": "T/C", "setting": "endpoint: mean survival time, dose: 8.0 mg/kg/injection, schedule: Q01DX009 (ip), vehicle: saline", "result": "124 % of control"}]}
{"smiles": "Cc1ccc(-c2cc(C(=O)O)c3cc(F)ccc3n2)cc1", "values": [{"measurement": "T/C", "setting": "[1]", "result": "101 % of control"}, {"measurement": "T/C", "setting": "[2]", "result": "95 % of control"}, {"measurement": "T/C", "setting": "[3]", "result": "100 % of control"}]}
{"smiles": "CCC(C)(C)C1=C(N=[N+]=[N-])C(=O)C(C(C)(C)CC)=C(N=[N+]=[N-])C1=O", "values": [{"measurement": "T/C", "setting": "endpoint: mean survival time, dose: 100.0 mg/kg/injection, schedule: Q01DX001 (ip), vehicle: other", "result": "100 % of control"}, {"measurement": "T/C", "setting": "endpoint: mean survival time, dose: 200.0 mg/kg/injection, schedule: Q01DX001 (ip), vehicle: other", "result": "96 % of control"}, {"measurement": "T/C", "setting": "endpoint: mean survival time, dose: 400.0 mg/kg/injection, schedule: Q01DX001 (ip), vehicle: other", "result": "103 % of control"}]}
{"smiles": "COc1cc(C=Nc2cc(Cl)c(O)c(Cl)c2)ccc1N(CCCl)CCCl", "values": [{"measurement": "T/C", "setting": "endpoint: mean survival time, dose: 12.5 mg/kg/injection, schedule: Q01DX001 (ip), vehicle: carboxymethylcellulose (CMC)", "result": "120 % of control"}, {"measurement": "T/C", "setting": "endpoint: mean survival time, dose: 25.0 mg/kg/injection, schedule: Q01DX001 (ip), vehicle: carboxymethylcellulose (CMC)", "result": "155 % of control"}]}
{"smiles": "CC(C)(C)CC(C)(C)c1ccc(OCCOc2ccccc2NC(=O)CC(=O)c2cccc([N+](=O)[O-])c2)cc1", "values": [{"measurement": "T/C", "setting": "endpoint: mean survival time, dose: 100.0 mg/kg/injection, schedule: Q01DX009 (ip), vehicle: Klucel (hydroxypropylcellulose) (HPC)", "result": "98 % of control"}, {"measurement": "T/C", "setting": "[1]", "result": "97 % of control"}, {"measurement": "T/C", "setting": "endpoint: mean survival time, dose: 200.0 mg/kg/injection, schedule: Q01DX009 (ip), vehicle: Klucel (hydroxypropylcellulose) (HPC)", "result": "93 % of control"}, {"measurement": "T/C", "setting": "[2]", "result": "101 % of control"}, {"measurement": "T/C", "setting": "endpoint: mean survival time, dose: 400.0 mg/kg/injection, schedule: Q01DX009 (ip), vehicle: Klucel (hydroxypropylcellulose) (HPC)", "result": "90 % of control"}, {"measurement": "T/C", "setting": "[3]", "result": "92 % of control"}]}
{"smiles": "CCOC1(C)OC2C(CO)OC(n3ccc4c(N)ncnc43)C2O1", "note": "(configuration not stated)", "values": [{"measurement": "T/C", "setting": "[4]", "result": "111 % of control"}]}
{"smiles": "O=c1cc(CCl)nc2c3ncn(C4OC(CO)C(O)C4O)c3ncn12", "note": "(configuration not stated)", "values": [{"measurement": "T/C", "setting": "endpoint: median survival time, dose: 12.5 mg/kg/injection, schedule: Q01DX005 (ip), vehicle: saline with Tween-80", "result": "105 % of control"}, {"measurement": "T/C", "setting": "endpoint: median survival time, dose: 25.0 mg/kg/injection, schedule: Q01DX005 (ip), vehicle: saline with Tween-80", "result": "102 % of control"}, {"measurement": "T/C", "setting": "endpoint: median survival time, dose: 50.0 mg/kg/injection, schedule: Q01DX005 (ip), vehicle: saline with Tween-80", "result": "98 % of control"}, {"measurement": "T/C", "setting": "endpoint: median survival time, dose: 100.0 mg/kg/injection, schedule: Q01DX005 (ip), vehicle: saline with Tween-80", "result": "95 % of control"}, {"measurement": "T/C", "setting": "endpoint: median survival time, dose: 200.0 mg/kg/injection, schedule: Q01DX005 (ip), vehicle: saline with Tween-80", "result": "98 % of control"}]}
{"smiles": "Nc1ncnc2c1ncn2C1CC(O)C(O)CO1", "note": "(configuration not stated)", "values": [{"measurement": "T/C", "setting": "[4]", "result": "103 % of control"}, {"measurement": "T/C", "setting": "endpoint: mean survival time, dose: 200.0 mg/kg/injection, schedule: Q01DX001 (ip), vehicle: saline", "result": "105 % of control"}, {"measurement": "T/C", "setting": "endpoint: mean survival time, dose: 400.0 mg/kg/injection, schedule: Q01DX001 (ip), vehicle: saline", "result": "105 % of control"}]}
